# Test system: NCI-H719 tumor spheroids, viability
# Assay: Anticancer human tumor NCI-H719 cell line growth inhibition;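 note: spheroids exposed to compounds for seven days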;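 for viability, T/C: percent viability relative to DMSO vehicle control as 100%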
# Settings: spheroids with HUVEC and MSC; for IC50: curve of first compound; for viability, T/C: stronger effect = lower value
# Text: Multicellular complex tumor spheroid response to DNA repair inhibitors in combination with DNA-damaging drugs
# This study explores the anticancer activities of DNA-damaging drugs and inhibitors of DNA damage repair, both as single agents and in combinations. Complex tumor spheroids comprised of malignant cells, endothelial cells and mesenchymal stem cells served as an in vitro model for human solid tumors. This model system incorporates physiologically relevant features and patient-derived or established malignant cell lines with clinically relevant genetic alterations from many tumor types. Twenty-six patient-derived or established malignant cell lines were evaluated representing sarcoma, melanoma, small cell lung cancer (SCLC), non-small cell lung cancer (NSCLC), as well as bladder, ovarian and pancreatic cancers. The concentration ranges selected for each drug and investigational agent were based upon clinically achievable concentrations if the clinical Cmax of the agent was known.
# Compounds. The drugs and compounds olaparib (NSC753686), talazoparib (NSC767125), berzosertib (NSC777718), elimusertib (NSC800525), nedisertib (NSC802822), VX-984 (NSC792969), AZD-1390 (NSC803789), temozolomide (NSC362856), topotecan (NSC609699), trabectedin (NSC813783), staurosporine (NSC755774), and gemcitabine (NSC613327) were obtained from the National Cancer Institute (NCI) Developmental Therapeutics Program Chemical Repository. The FDA-approved anticancer drug set is available from the Developmental Therapeutics Program at https://dtp.cancer.gov/organization/dscb/obtaining/available_plates.htm. […] The stock solutions were prepared in dimethyl sulfoxide (DMSO, Sigma-Aldrich, St. Louis, MO, cat. D2650) at 400-fold the tested concentration and stored at -70 degrees C. Prior to their use, the stock solutions were diluted in fresh medium and the final DMSO concentration in the assay was 0.25% (v/v). All drugs and investigational agents were tested over a range starting from a high concentration at or near the clinical Cmax and decreasing in half-log increments. If the clinical Cmax for an agent had not been determined, the highest concentration tested was 10 microM.
# Cell Lines. The patient-derived cancer cell (PDC) lines: 156681-154-R-J1-PDC, 283228-195-R-J1-PDC, 287954-098-R-J1-PDC, 292921-168-R-J2-PDC, 349418-098-R-PDC, 425362-245-T-J1-PDC, 556581-035-R-J1-PDC, and BL0293-F563-PDC were received from the NCI Patient-Derived Models Repository (PDMR, https://pdmr.cancer.gov). The established cell lines HS-SY-2 (RRID:CVCL_8719), MPNST, and SYO-1 (RRID:CVCL_7146) were obtained from the Sloan Kettering Institute. The alveolar soft parts sarcoma cell line ASPS-1 (RRID:CVCL_S738) was established at the NCI and grown from internal seed stocks. The following established cell lines were purchased from the American Type Culture Collection (ATCC, Manassas, VA): G-401 (ATCC, cat. CRL-1441, RRID:CVCL_0270), SW982 (ATCC, cat. HTB-93, RRID:CVCL_1734), VA-ES-BJ (ATCC, cat. CRL-2138, RRID:CVCL_1785), NCI-H719 (ATCC, cat. CRL-5837, RRID:CVCL_1582), NCI-H196 (ATCC, cat. CRL-5823, RRID:CVCL_1509), NCI-H841 (ATCC, cat. CRL-5845, RRID:CVCL_1595), NCI-H1618 (ATCC, cat. CRL-5879, RRID:CVCL_1480), NCI-H1876 (ATCC, cat. CRL-5902, RRID:CVCL_1503), DMS 114 (ATCC, cat. CRL-2066; RRID:CVCL_1174), NCI-H211 (ATCC, cat. CRL-5824; RRID:CVCL_1529), and SW 1271 (ATCC, cat. CRL-2177, RRID:CVCL_1716). The small cell lung cancer cell line COR-L88 was purchased from Sigma-Aldrich (cat. 92031917-1VL, RRID:CVCL_1141). The non-small cell lung cancer cell lines NCI-H226 (RRID:CVCL_1544) and NCI-H322M (RRID:CVCL_1557) were established at the NCI and grown from internal seed stocks. Pooled donor human umbilical vein endothelial cells (HUVEC, Lonza, cat. CC-2519) and human mesenchymal stem cells (hMSC, Lonza, cat. PT-2501) were purchased from Lonza (Walkersville, MD).
# Cell Culture. All cells were maintained in an incubator at 37 degrees C and 5% CO2 with 95% humidity. […]
smiles,measurement,setting,value
O=C(c1cc(Cc2n[nH]c(=O)c3ccccc23)ccc1F)N1CCN(C(=O)C2CC2)CC1 + COc1cc2c(cc1O)CCNC21CSC2c3c(OC(C)=O)c(C)c4c(c3C(COC1=O)N1C(O)C3Cc5cc(C)c(OC)c(O)c5C(C21)N3C)OCO4,IC50,second compound 30 pM,0.356 µM
same,IC50,second compound 94.9 pM,< 0.0949 µM
same,IC50,second compound 0.0003 µM,< 0.0949 µM
same,IC50,second compound 0.000949 µM,< 0.0949 µM
same,IC50,second compound 0.003 µM,< 0.0949 µM
same,"viability, T/C","second compound 30 pM, first compound 0.0949 µM",67%
same,"viability, T/C","second compound 30 pM, first compound 0.3 µM",48.7%
same,"viability, T/C","second compound 30 pM, first compound 0.949 µM",41.7%
same,"viability, T/C","second compound 30 pM, first compound 3 µM",22.3%
same,"viability, T/C","second compound 30 pM, first compound 9.49 µM",12.5%
same,"viability, T/C","second compound 30 pM, first compound 30 µM",8.97%
same,"viability, T/C","second compound 94.9 pM, first compound 0.0949 µM",23.4%
same,"viability, T/C","second compound 94.9 pM, first compound 0.3 µM",13.7%
same,"viability, T/C","second compound 94.9 pM, first compound 0.949 µM",14%
same,"viability, T/C","second compound 94.9 pM, first compound 3 µM",13.3%
same,"viability, T/C","second compound 94.9 pM, first compound 9.49 µM",13.3%
same,"viability, T/C","second compound 94.9 pM, first compound 30 µM",6.02%
same,"viability, T/C","second compound 0.0003 µM, first compound 0.0949 µM",10.9%
same,"viability, T/C","second compound 0.0003 µM, first compound 0.3 µM",8.6%
same,"viability, T/C","second compound 0.0003 µM, first compound 0.949 µM",11.6%
same,"viability, T/C","second compound 0.0003 µM, first compound 3 µM",11.6%
same,"viability, T/C","second compound 0.0003 µM, first compound 9.49 µM",8.94%
same,"viability, T/C","second compound 0.0003 µM, first compound 30 µM",6.85%
same,"viability, T/C","second compound 0.000949 µM, first compound 0.0949 µM",6.97%
same,"viability, T/C","second compound 0.000949 µM, first compound 0.3 µM",8.6%
same,"viability, T/C","second compound 0.000949 µM, first compound 0.949 µM",8.56%
same,"viability, T/C","second compound 0.000949 µM, first compound 3 µM",7.26%
same,"viability, T/C","second compound 0.000949 µM, first compound 9.49 µM",5.7%
same,"viability, T/C","second compound 0.000949 µM, first compound 30 µM",4.86%
same,"viability, T/C","second compound 0.003 µM, first compound 0.0949 µM",0.61%
same,"viability, T/C","second compound 0.003 µM, first compound 0.3 µM",0.45%
same,"viability, T/C","second compound 0.003 µM, first compound 0.949 µM",0.63%
same,"viability, T/C","second compound 0.003 µM, first compound 3 µM",0.7%
same,"viability, T/C","second compound 0.003 µM, first compound 9.49 µM",0.69%
same,"viability, T/C","second compound 0.003 µM, first compound 30 µM",1.37%
COc1cc(C)[nH]c(=O)c1CN1CCc2c(Cl)cc(C(OC)C3COC3)c(Cl)c2C1=O (stereo not given) + CC[C@@]1(O)C(=O)OCc2c1cc1n(c2=O)Cc2cc3c(CN(C)C)c(O)ccc3nc2-1,IC50,second compound 0.003 µM,> 10 µM
same,IC50,second compound 0.00949 µM,< 0.0316 µM
same,IC50,second compound 0.03 µM,< 0.0316 µM
same,IC50,second compound 0.0949 µM,< 0.0316 µM
same,IC50,second compound 0.3 µM,< 0.0316 µM
same,"viability, T/C","second compound 0.003 µM, first compound 0.0316 µM",69.7%
same,"viability, T/C","second compound 0.003 µM, first compound 0.1 µM",57.6%
same,"viability, T/C","second compound 0.003 µM, first compound 0.316 µM",74.2%
same,"viability, T/C","second compound 0.003 µM, first compound 1 µM",65%
same,"viability, T/C","second compound 0.003 µM, first compound 3.16 µM",77%
same,"viability, T/C","second compound 0.003 µM, first compound 10 µM",69.1%
same,"viability, T/C","second compound 0.00949 µM, first compound 0.0316 µM",12.2%
same,"viability, T/C","second compound 0.00949 µM, first compound 0.1 µM",9.34%
same,"viability, T/C","second compound 0.00949 µM, first compound 0.316 µM",9.67%
same,"viability, T/C","second compound 0.00949 µM, first compound 1 µM",10.4%
same,"viability, T/C","second compound 0.00949 µM, first compound 3.16 µM",7.95%
same,"viability, T/C","second compound 0.00949 µM, first compound 10 µM",7.67%
same,"viability, T/C","second compound 0.03 µM, first compound 0.0316 µM",6.93%
same,"viability, T/C","second compound 0.03 µM, first compound 0.1 µM",8.47%
same,"viability, T/C","second compound 0.03 µM, first compound 0.316 µM",6.68%
same,"viability, T/C","second compound 0.03 µM, first compound 1 µM",8.32%
same,"viability, T/C","second compound 0.03 µM, first compound 3.16 µM",8.79%
same,"viability, T/C","second compound 0.03 µM, first compound 10 µM",7.28%
same,"viability, T/C","second compound 0.0949 µM, first compound 0.0316 µM",8.78%
same,"viability, T/C","second compound 0.0949 µM, first compound 0.1 µM",7.8%
same,"viability, T/C","second compound 0.0949 µM, first compound 0.316 µM",7.84%
same,"viability, T/C","second compound 0.0949 µM, first compound 1 µM",8.96%
same,"viability, T/C","second compound 0.0949 µM, first compound 3.16 µM",8.75%
same,"viability, T/C","second compound 0.0949 µM, first compound 10 µM",8.8%
same,"viability, T/C","second compound 0.3 µM, first compound 0.0316 µM",7.71%
same,"viability, T/C","second compound 0.3 µM, first compound 0.1 µM",9.03%
same,"viability, T/C","second compound 0.3 µM, first compound 0.316 µM",8.64%
same,"viability, T/C","second compound 0.3 µM, first compound 1 µM",9.67%
same,"viability, T/C","second compound 0.3 µM, first compound 3.16 µM",8.76%
same,"viability, T/C","second compound 0.3 µM, first compound 10 µM",7.22%
